Structures are written as SMILES.

What all share (type): in vivo, human
The subject of data set [1] is healthy, obese adults with normal blood pressure. The data set can be described thus: Effect of betaine on blood pressure, controlled randomized double-blinded 12-week intervention study. The source says:
(§1) The effects of betaine supplementation on blood pressure, and in addition on body weight, body composition, resting energy expenditure, and concentrations of serum total and lipoprotein lipids and plasma homocysteine in humans, were studied. The participants were healthy, obese adults with normal blood pressure.
(§2) Forty-two subjects (14 males, 28 females) without any chronic disease and with normal liver, kidney and thyroid function participated in the study. The inclusion criteria for body mass index (BMI) was 28-40 kg/m^2 and for age 25-60 years. Serum concentration of total triglycerides had to be <3.5 mmol/l and that of total cholesterol <7.5 mmol/l. Inclusion criteria for fasting concentration of plasma glucose was <6.7 mmol/l. Subjects with lipid lowering medication were excluded as well women with perimenopause. Four women were postmenopausal in the control group and 6 were postmenopausal in the betaine group. None of the participants were on a medication for hypertension.
(§3) The study was a controlled, randomized double-blinded parallel study. […] Grapefruit juice was added to simulate the bitter taste of betaine. The subjects were on their regular eucaloric diet during this period. For the intervention period with a hypocaloric (−2100 kJ or −500 kcal) diet the subjects were randomly assigned in two groups (20 for the control group, 22 for the betaine group). The subjects were matched for BMI, gender and menstrual cycle.
(§4) The control group consumed orange juice 1 dl twice a day and the betaine group consumed betaine enriched orange juice 1 dl twice a day. The amount of betaine was 3 g per 1 dl orange juice, giving a daily betaine dose of 6 g.
The data were analyzed with the SPSS/PC+ statistics program (V8.0, SPSS; Chicago, Ill.). Before further analyses, normal distribution of the variables was checked with the Kolmogorov-Smimov test with Lilliefors significance correction. Variables with abnormal distribution (TG) were logarithmized and the logarithmized values were used in further analyses. GLM for repeated measures was used to test the changes within time. In cases the result of this analysis was significant paired t-test was used for two-tailed comparisons within the groups. Student's t-test was used for between-group comparisons. […] All data are expressed as mean±SD.
Blood pressure was measured from the right arm after five minutes of rest in sitting position using a zero mercury sphygmomanometer. Two measurements were performed and the mean of them was calculated and used for further analyses.

For data set [2] the test system is unchanged. Description: Tolerability of the daily betaine dose in the intervention study. To be noted: 6 g daily dose, 12 weeks.
Excerpt: as §1, §2
The study was a controlled, randomized double-blinded parallel study. […] Grapefruit juice was added to simulate the bitter taste of betaine. The subjects were on their regular eucaloric diet during this period. For the intervention period with a hypocaloric (−2100 kJ or −500 kcal) diet the subjects were randomly assigned in two groups (20 for the control group, 22 for the betaine group). […]

For the next data set, the system named is homocysteine. The data set can be described thus: Total homocysteine by HPLC in the intervention study.
Excerpt: as §1, §2, §3, §4
Plasma total homocysteine was determined by a modification of the highpressure liquid chromatographic method described by Ubbink et al. (Ubbink, J. B., Vermaak, W. J. H., Bissbort, S. Rapid high-performance liquid chromatographic assay for total homocysteine levels in human serum. J Chromatogr (1991) 565:441446). The modified mobile phase consisted of 0.37 mol/l acetate and 0.5% methanol, pH 4.15.

Data set [3] can be described thus: Betaine absorption and excretion: blood, serum and urine levels after administration. The procedure:
There was, however, no clear correlation between blood and urine betaine levels. After administration of 1, 3 or 6 g betaine an amount of about 3, 5 and 7%, respectively, was recovered as betaine and dimethylglycine (DMG) in 24 h urine. After loading betaine 100 mg/kg, peak serum concentrations were found 1-2 h after loading; the concentrations varying a lot with indiviudual (148-258 μmol/l).

Setting [4] is: 4 wk (beginning of intervention period), betaine group, mean ± SD.

Regarding `C[N+](C)(C)CC(=O)[O-]` [Betaine, trimethylglycine], the Diastolic blood pressure is recorded as 85.4 ± 7.9 mmHg in data set [1] (setting [4]) and 80.5 ± 7.1 mmHg in data set [1] (16 wk (end of intervention period), betaine 6 g daily in orange juice, mean ± SD, P=0.002 vs 4 wk). For the same compound, the Systolic blood pressure in data set [1] (setting [4]) is on record as 122.5 ± 9.5 mmHg; in data set [1] (16 wk (end of intervention period), betaine 6 g daily in orange juice, mean ± SD, P=0.432 vs 4 wk), 121.1 ± 9.4 mmHg. Besides, the “Change in diastolic blood pressure during the intervention period” value in data set [1] (12-week intervention, betaine 6 g daily, mean ± SD, P=0.219 vs control group) is recorded as −4.9 ± 6.6 mmHg. In addition, the “Change in systolic blood pressure during the intervention period” value in data set [1] (12-week intervention, betaine 6 g daily, mean ± SD, P=0.740 vs control group) was −1.4 ± 8.0 mmHg. For the same compound, the “Diastolic blood pressure (result in words)” value in data set [1] (betaine group, normotensive subjects, 4 wk vs 16 wk) is recorded as “decreased significantly”. Further, in data set [2], the Side effects result was “no side effects were observed”. Also, the Tolerability entry in data set [2] is “well tolerated”. Further, the Serum homocysteine concentration amounted to 8.76 ± 1.63 µmol/L in the data set with homocysteine (4 wk (beginning of intervention), betaine group, mean ± SD) and 7.93 ± 1.52 µmol/L in the data set with homocysteine (16 wk (end of intervention), betaine 6 g daily, P=0.025 vs 4 wk). Also, the “Change in serum homocysteine concentration during the intervention period” value in the data set with homocysteine (betaine 6 g daily, P=0.030 vs control group) was -0.83 ± 0.34 µmol/L. For the same compound, the “Time of peak serum concentrations after loading” value in data set [3] (loading betaine 100 mg/kg) was 1 to 2 h. In data set [3] (loading betaine 100 mg/kg, varying with individual), this compound showed a Peak serum concentrations of 148 to 258 µmol/L. Further, the “Betaine in blood and urine of persons given betaine (result in words)” value in data set [3] (persons given betaine in the study) is reported as “Significantly increased amounts”.

The values above are taken from US20040043442A1, “Use of betaine in functional products having blood pressure lowering effects” (Finnfeeds Finland Oy, priority 2001, published 2004).
